Data on two compounds can be found in US8841321B2, “Quinoline derivatives as antibacterial agents” (Janssen Pharmaceutica NV, priority 2005, dated 2014).

Test [1] has as its system methicillin resistant S. aureus (MRSA). The test can be described thus: Time kill assay (broth microdilution method). Format: cell-based, Staphylococcus aureus. The source says: (§1) Bactericidal or bacteriostatic activity of the compounds may be determined in a time kill assay using the broth microdilution method*. In a time kill assay on Staphylococcus aureus and methicillin resistant S. aureus (MRSA), the starting inoculum of S. aurues and MRSA is 10^6 CPU/ml in Muller Hinton broth. The antibacterial compounds are used at the concentration of 0.1 to 10 times the MIC (i.e. IC90 as determined in microtitre plate assay). Wells receiving no antibacterial agent constitute the culture growth control. The plates containing the microorganism and the test compounds are incubated at 37° C. After 0, 4, 24, and 48 hrs of incubation samples are removed for determination of viable counts by serial dilution (10^−1 to 10^−6) in sterile PBS and plating (200 μl) on Mueller Hinton agar. The plates are incubated at 37° C. for 24 hours and the number of colonies are determined. Killing curves can be constructed by plotting the log10CFU per ml versus time. A bactericidal effect is commonly defined as 3-log10 decrease in number of CFU per ml as compared to untreated inoculum. The potential carryover effect of the drugs is removed by serial dilutions and counting the colonies at highest dilution used for plating. No carryover effect is observed at the dilution of 10^−2 used for plating. […] Antimicrob. Agents Chemother. 40, 839-845 (1996).
(In general: In broth dilution the organism is exposed to a series of concentrations in liquid medium.)

The subject of another test is Staphylococcus aureus. The test can be described thus: Time kill assay (broth microdilution method). Format: cell-based. The following applies: S. aureus; for bactericidal activity in time kill assay: observed at 1 and 10 times MIC90.
Source text: as §1

Test [2] deals with EFA 29212 (Enterococcus faecalis (ATCC29212)). The test can be described thus: Microtitre plate assay, IC90 determination. Particulars: Enterococcus faecalis (ATCC29212). Format: cell-based.
The test system of test [3] is SPN 6305 (Streptococcus pneumoniae (ATCC6305)). The test can be described thus: Microtitre plate assay, IC90 determination. The test is classed as cell-based. Particulars: Streptococcus pneumoniae (ATCC6305). A digest of the protocol: (§2)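 Growth-inhibition endpoint: resazurin added 3 h after inoculation, plates incubated overnight, fluorescence at 530/590 nm after 24 h at 37 °C. Inocula of roughly 10–60 CFU per well in Mueller-Hinton medium; compounds titrated five-fold. IC90 reported as μg/ml.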

Test [4] concerns STA 29213 (Staphylococcus aureus (ATCC29213)). The test is described as follows: Microtitre plate assay, IC90 determination. Format: cell-based. Particulars: Staphylococcus aureus (ATCC29213). A digest of the protocol: as §2
Test [5] has as its system PAE 27853 (Pseudomonas aeruginosa (ATCC27853)). The test can be described thus: Microtitre plate assay, IC90 determination. The test is classed as cell-based. Particulars: Pseudomonas aeruginosa (ATCC27853).
Test [6] relates to SPY 8668 (Streptococcus pyogens (ATCC8668)). The test can be described thus: Microtitre plate assay, IC90 determination. Particulars: Streptococcus pyogens (ATCC8668). The test is classed as cell-based.

Converted amounts (≈) assume the structure as drawn.

Take `COc1nc2ccc(Br)cc2cc1C(c1ccccc1)C(O)(CCCCN(C)C)c1ccc2ccccc2c1` (centres unmarked) [Compound 18]: the “bactericidal activity in time kill assay” value in test [1] is on record as “marked bactericidal activity”. Further, in the test with Staphylococcus aureus, the “MIC (1×MIC; MIC i.e. IC90 as determined in microtitre plate assay)” value was determined as 12 µg/mL (≈ 20.6 µM) and the “bactericidal activity in time kill assay” value is “bactericidal activity”. In addition, the “growth of treated samples in time kill assay” value with Staphylococcus aureus (at 0.1 times the MIC) is given as “followed the control in growth”. For the same compound, the “IC90 (μg/ml) EFA 29212” value in test [2] came out at 46.4 µg/mL (≈ 79.5 µM). Also, the “IC90 (μg/ml) SPN 6305” value in test [3] turned out to be 2.9 µg/mL (≈ 4.97 µM). The “IC90 (μg/ml) STA 29213” value in test [4] amounted to 46.4 µg/mL (≈ 79.5 µM). In test [5], the “IC90 (μg/ml) PAE 27853” value came out at 23.2 µg/mL (≈ 39.8 µM). Besides, the “IC90 (μg/ml) SPY 8668” value in test [6] stood at 11.6 µg/mL (≈ 19.9 µM).

Regarding `O=C(O)c1cn(C2CC2)c2cc(N3CCNCC3)c(F)cc2c1=O` [ciprofloxacin, reference compound], the “bactericidal activity in time kill assay” value in test [1] is given as “no bactericidal effect”; in the test with Staphylococcus aureus, “bactericidal activity”.
